Laboratory results taken from patent publication US20220218699A1, “New Pharmaceutical Formulation” (Hoffmann-La Roche Inc., priority 2019, published 2022).

Experiments:
[1] = Single-dose food effect study in dogs; type: in vivo; details: formulation that did not comprise at least one acidulant
Source text: Such food effects can cause difficulty during human testing of drugs as the fed or fasted condition of the patient can cause exposure or bioavailability of drugs to vary widely.

TrkC = TrkC (Homo sapiens, UniProt Q16288); details: cited from earlier work
Sequence of TrkC (Q16288 32-839): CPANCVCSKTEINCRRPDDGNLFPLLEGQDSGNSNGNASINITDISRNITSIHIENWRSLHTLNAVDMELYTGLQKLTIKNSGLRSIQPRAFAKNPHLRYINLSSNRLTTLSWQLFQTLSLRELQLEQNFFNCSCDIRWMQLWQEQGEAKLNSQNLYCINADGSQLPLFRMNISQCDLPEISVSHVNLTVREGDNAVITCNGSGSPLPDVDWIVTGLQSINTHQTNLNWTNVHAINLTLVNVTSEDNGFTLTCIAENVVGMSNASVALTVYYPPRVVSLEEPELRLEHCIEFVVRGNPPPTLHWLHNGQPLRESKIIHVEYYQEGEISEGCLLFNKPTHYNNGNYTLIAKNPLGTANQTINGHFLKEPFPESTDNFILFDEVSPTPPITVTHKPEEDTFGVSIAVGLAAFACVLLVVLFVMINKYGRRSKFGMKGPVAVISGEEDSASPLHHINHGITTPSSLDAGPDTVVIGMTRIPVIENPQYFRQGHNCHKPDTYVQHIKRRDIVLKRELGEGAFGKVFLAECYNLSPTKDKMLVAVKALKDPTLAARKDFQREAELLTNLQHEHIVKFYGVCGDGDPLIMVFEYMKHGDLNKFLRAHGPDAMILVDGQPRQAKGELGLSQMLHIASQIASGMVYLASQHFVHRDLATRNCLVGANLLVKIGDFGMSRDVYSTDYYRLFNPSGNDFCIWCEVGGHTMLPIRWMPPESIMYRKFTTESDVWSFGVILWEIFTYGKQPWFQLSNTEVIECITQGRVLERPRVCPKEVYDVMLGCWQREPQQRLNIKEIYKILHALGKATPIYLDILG

[2] = molecular target: anaplastic lymphoma kinase (ALK) (Homo sapiens, UniProt Q9UM73); details: cited from earlier work
Sequence of anaplastic lymphoma kinase (ALK) (Q9UM73 19-1620): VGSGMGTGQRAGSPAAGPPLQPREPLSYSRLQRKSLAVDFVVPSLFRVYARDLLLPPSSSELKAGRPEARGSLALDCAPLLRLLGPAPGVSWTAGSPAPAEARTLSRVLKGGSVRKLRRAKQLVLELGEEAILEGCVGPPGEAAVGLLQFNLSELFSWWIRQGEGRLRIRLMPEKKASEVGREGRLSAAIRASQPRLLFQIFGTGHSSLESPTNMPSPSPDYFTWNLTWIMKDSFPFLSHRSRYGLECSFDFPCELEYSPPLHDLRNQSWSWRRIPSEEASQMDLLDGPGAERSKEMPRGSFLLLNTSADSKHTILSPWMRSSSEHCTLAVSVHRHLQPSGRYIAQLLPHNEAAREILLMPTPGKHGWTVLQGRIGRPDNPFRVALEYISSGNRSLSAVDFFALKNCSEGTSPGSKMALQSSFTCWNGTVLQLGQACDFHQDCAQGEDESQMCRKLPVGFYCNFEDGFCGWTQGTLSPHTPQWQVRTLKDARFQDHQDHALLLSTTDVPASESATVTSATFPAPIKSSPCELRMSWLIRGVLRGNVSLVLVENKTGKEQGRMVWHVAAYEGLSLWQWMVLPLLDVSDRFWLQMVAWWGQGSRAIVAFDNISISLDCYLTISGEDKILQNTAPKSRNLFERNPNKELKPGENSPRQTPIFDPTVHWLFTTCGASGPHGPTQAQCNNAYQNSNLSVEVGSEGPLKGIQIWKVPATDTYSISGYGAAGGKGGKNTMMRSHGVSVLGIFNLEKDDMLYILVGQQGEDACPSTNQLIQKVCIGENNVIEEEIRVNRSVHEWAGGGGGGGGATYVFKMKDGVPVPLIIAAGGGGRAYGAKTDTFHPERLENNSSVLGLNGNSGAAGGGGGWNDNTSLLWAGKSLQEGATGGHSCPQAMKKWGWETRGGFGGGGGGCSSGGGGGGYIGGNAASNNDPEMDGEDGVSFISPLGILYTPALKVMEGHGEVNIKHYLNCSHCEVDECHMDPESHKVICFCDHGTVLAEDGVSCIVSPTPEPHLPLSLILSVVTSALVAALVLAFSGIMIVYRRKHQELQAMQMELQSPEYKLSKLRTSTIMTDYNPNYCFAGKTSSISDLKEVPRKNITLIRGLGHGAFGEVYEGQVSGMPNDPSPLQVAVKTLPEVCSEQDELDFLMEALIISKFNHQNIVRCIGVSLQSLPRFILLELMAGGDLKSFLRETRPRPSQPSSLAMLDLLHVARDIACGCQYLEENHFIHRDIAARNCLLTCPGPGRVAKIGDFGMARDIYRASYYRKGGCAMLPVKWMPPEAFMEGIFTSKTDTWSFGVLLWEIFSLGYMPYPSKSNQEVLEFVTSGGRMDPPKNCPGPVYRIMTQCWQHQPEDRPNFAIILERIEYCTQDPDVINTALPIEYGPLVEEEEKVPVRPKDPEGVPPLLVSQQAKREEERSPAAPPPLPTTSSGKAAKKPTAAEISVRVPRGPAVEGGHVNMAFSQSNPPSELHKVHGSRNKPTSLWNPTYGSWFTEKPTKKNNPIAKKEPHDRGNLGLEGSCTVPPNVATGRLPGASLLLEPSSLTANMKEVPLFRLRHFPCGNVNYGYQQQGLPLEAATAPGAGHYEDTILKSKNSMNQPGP

TrkB = TrkB (Homo sapiens, UniProt Q16620); details: cited from earlier work
Sequence of TrkB (Q16620 32-822): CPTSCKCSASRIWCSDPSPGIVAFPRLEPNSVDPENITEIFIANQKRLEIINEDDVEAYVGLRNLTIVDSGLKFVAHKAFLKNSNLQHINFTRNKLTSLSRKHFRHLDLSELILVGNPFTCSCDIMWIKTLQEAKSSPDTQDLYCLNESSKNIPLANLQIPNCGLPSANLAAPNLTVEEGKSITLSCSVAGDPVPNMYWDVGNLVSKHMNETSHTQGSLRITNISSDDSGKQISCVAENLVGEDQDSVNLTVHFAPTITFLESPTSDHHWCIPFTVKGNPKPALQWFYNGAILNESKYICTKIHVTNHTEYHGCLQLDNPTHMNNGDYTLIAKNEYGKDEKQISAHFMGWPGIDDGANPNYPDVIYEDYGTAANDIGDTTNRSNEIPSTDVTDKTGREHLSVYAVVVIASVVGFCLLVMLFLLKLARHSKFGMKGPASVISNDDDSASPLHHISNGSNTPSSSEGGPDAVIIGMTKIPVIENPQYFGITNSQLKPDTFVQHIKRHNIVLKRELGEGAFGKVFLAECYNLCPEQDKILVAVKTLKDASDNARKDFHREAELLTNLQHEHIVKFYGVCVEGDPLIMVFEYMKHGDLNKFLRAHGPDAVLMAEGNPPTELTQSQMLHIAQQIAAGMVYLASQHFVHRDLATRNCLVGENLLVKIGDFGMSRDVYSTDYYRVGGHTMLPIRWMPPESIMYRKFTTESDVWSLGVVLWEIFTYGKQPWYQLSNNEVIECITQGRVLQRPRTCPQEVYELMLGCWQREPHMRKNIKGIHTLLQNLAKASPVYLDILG

exposure levels under fed conditions compared to fasting conditions [1]: approximately 2 fold
SMILES: CN1CCN(c2ccc(C(=O)Nc3n[nH]c4ccc(Cc5cc(F)cc(F)c5)cc34)c(NC3CCOCC3)c2)CC1 [N-[5-(3,5-difluorobenzyl)-1H-indazol-3-yl]-4-(4-methyl-piperazin-1-yl)-2-(tetrahydro-pyran-4-ylamino)-benzamide]
inhibition of tyrosine kinase TrkC (TrkC): potent inhibitor
inhibition of tyrosine kinase ALK [2]: potent inhibitor
inhibition of tyrosine kinase TrkB (TrkB): potent inhibitor
